Results published in patent US20060223841A1 (priority 2003, published 2006).

Legend:
[1] = Stability under grinding by hand in mortar and pestle (XRD); details: grinding by hand in mortar and pestle for one minute
[2] = Stability of ratio of the mixture of desloratadine polymorphic forms on storage (XRPD); type: physicochemical
Source text: Copper radiation of 1.5418 Å was used.
In all cases samples were packed in polyethylene and store above conditions.

[3] = Solubility of desloratadine; type: physicochemical
[4] = 25° C., 60% RH, 1 month (4 weeks)
[5] = 25° C., 60% RH, 2 months (8 weeks)
[6] = 25° C., 60% RH, 3 months (12 weeks)
[7] = 40° C., 75% RH, 1 month (4 weeks)
[8] = 40° C., 75% RH, 2 months (8 weeks)
[9] = 25° C., 60% RH, 6 months (24 weeks)
[10] = 40° C., 75% RH, 3 months (12 weeks)
[11] = 40° C., 75% RH, 6 months (24 weeks)

| Structure (SMILES) | change in the XRD pattern after grinding [1] | Form 1 (%) ([2]; 25° C., 60% RH, 0 week) | Form 2 (%) ([2]; 25° C., 60% RH, 0 week) | Form 1 (%) [2, 4] [%] | Form 2 (%) [2, 4] [%] | Form 1 (%) ([2]; 25° C., 60% RH, 1 week) | Form 2 (%) ([2]; 25° C., 60% RH, 1 week) | Form 1 (%) [2, 5] [%] | Form 2 (%) [2, 5] [%] | Form 1 (%) ([2]; 25° C., 60% RH, 2 weeks) | Form 2 (%) ([2]; 25° C., 60% RH, 2 weeks) | Form 1 (%) [2, 6] [%] | Form 2 (%) [2, 6] [%] | Form 1 (%) ([2]; 40° C., 75% RH, 0 week) | Form 2 (%) ([2]; 40° C., 75% RH, 0 week) | Form 1 (%) [2, 7] [%] | Form 2 (%) [2, 7] [%] | Form 1 (%) ([2]; 40° C., 75% RH, 1 week) | Form 2 (%) ([2]; 40° C., 75% RH, 1 week) | Form 1 (%) [2, 8] [%] | further results |
| --- | --- | --- | --- | --- | --- | --- | --- | --- | --- | --- | --- | --- | --- | --- | --- | --- | --- | --- | --- | --- | --- |
| Clc1ccc2c(c1)CCc1cccnc1C2=C1CCNCC1 [25:75, desloratadine] | do not show any substantial change |  |  |  |  |  |  |  |  |  |  |  |  |  |  |  |  |  |  |  |  |
| Clc1ccc2c(c1)CCc1cccnc1C2=C1CCNCC1 [Example 2 of Stability Tests, desloratadine] |  | 62 | 38 | 66 | 34 | 65 | 35 | 67 | 33 | 61 | 39 | 66 | 34 | 62 | 38 | 65 | 35 | 63 | 37 | 65 | Form 2 (%) [2, 8]: 35%; Form 1 (%) ([2]; 40° C., 75% RH, 2 weeks): 64%; Form 2 (%) ([2]; 40° C., 75% RH, 2 weeks): 36% |
| Clc1ccc2c(c1)CCc1cccnc1C2=C1CCNCC1 [84:16, desloratadine] | do not show any substantial change |  |  |  |  |  |  |  |  |  |  |  |  |  |  |  |  |  |  |  |  |
| Clc1ccc2c(c1)CCc1cccnc1C2=C1CCNCC1 [Form I, desloratadine, reference compound] | stable |  |  |  |  |  |  |  |  |  |  |  |  |  |  |  |  |  |  |  |  |
| Clc1ccc2c(c1)CCc1cccnc1C2=C1CCNCC1 [Example 4 of Stability Tests, desloratadine] |  | 76 | 24 | 82 | 18 | 87 | 13 | 86 | 14 | 80 | 20 | 81 | 19 | 76 | 24 | 88 | 12 | 76 | 24 | 85 | Form 1 (%) [2, 9]: 84%; Form 2 (%) [2, 9]: 16%; Form 2 (%) [2, 8]: 15%; Form 1 (%) ([2]; 40° C., 75% RH, 2 weeks): 82%; Form 2 (%) ([2]; 40° C., 75% RH, 2 weeks): 18%; Form 1 (%) [2, 10]: 82%; Form 2 (%) [2, 10]: 18%; Form 1 (%) [2, 11]: 82%; Form 2 (%) [2, 11]: 18% |
| Clc1ccc2c(c1)CCc1cccnc1C2=C1CCNCC1 [75:25, desloratadine] | do not show any substantial change |  |  |  |  |  |  |  |  |  |  |  |  |  |  |  |  |  |  |  |  |
| Clc1ccc2c(c1)CCc1cccnc1C2=C1CCNCC1 [desloratadine, 8-chloro-6,11-dihydro-11-(4-piperidylidene)-5H-benzo[5,6] cyclohepta[1,2-b]pyridine] |  |  |  |  |  |  |  |  |  |  |  |  |  |  |  |  |  |  |  |  | solubility [3]: very low |
| Clc1ccc2c(c1)CCc1cccnc1C2=C1CCNCC1 [50:50, desloratadine] | do not show any substantial change |  |  |  |  |  |  |  |  |  |  |  |  |  |  |  |  |  |  |  |  |
| Clc1ccc2c(c1)CCc1cccnc1C2=C1CCNCC1 [Form II, desloratadine, reference compound] | stable |  |  |  |  |  |  |  |  |  |  |  |  |  |  |  |  |  |  |  |  |
| Clc1ccc2c(c1)CCc1cccnc1C2=C1CCNCC1 [Example 1 of Stability Tests, desloratadine] |  | 57 | 43 | 55 | 45 | 59 | 41 | 63 | 37 | 53 | 47 | 52 | 48 | 57 | 43 | 50 | 50 | 46 | 54 | 39 | Form 2 (%) [2, 8]: 61%; Form 1 (%) ([2]; 40° C., 75% RH, 2 weeks): 43%; Form 2 (%) ([2]; 40° C., 75% RH, 2 weeks): 57% |
| Clc1ccc2c(c1)CCc1cccnc1C2=C1CCNCC1 [Example 3 of Stability Tests, desloratadine] |  | 74 | 26 | 79 | 21 | 79 | 21 | 75 | 25 | 74 | 26 | 74 | 26 | 74 | 26 | 78 | 22 | 77 | 23 | 78 | Form 1 (%) [2, 9]: 77%; Form 2 (%) [2, 9]: 23%; Form 2 (%) [2, 8]: 22%; Form 1 (%) ([2]; 40° C., 75% RH, 2 weeks): 81%; Form 2 (%) ([2]; 40° C., 75% RH, 2 weeks): 19%; Form 1 (%) [2, 10]: 75%; Form 2 (%) [2, 10]: 25%; Form 1 (%) [2, 11]: 75%; Form 2 (%) [2, 11]: 25% |
